Measurements as given in PubChem BioAssay (NCI).
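A five-concentration, 48-hour dose response in 96-well plates underlies each endpoint, interpolated linearly between surrounding concentrations. GI50 is the concentration that inhibits growth by half. TGI is the concentration that stops growth completely.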

Key:
Test in all cases: DTP human tumour cell line panel, 48 h
EKVX NSCLC = test system: EKVX NSCLC
HOP-92 NSCLC = test system: HOP-92 NSCLC
OVCAR-3 ovarian = test system: OVCAR-3 ovarian
T-47D breast = test system: T-47D breast
MOLT-4 leukemia = test system: MOLT-4 leukemia
UACC-257 melanoma = test system: UACC-257 melanoma
NCI-H226 lung = test system: NCI-H226 lung
RPMI-8226 leukemia = test system: RPMI-8226 leukemia
SW-620 colon = test system: SW-620 colon
RXF 393 renal = test system: RXF 393 renal
K-562 leukemia = test system: K-562 leukemia
PC-3 prostate = test system: PC-3 prostate
SN12C renal = test system: SN12C renal
HOP-62 NSCLC = test system: HOP-62 NSCLC
UACC-62 melanoma = test system: UACC-62 melanoma
BT-549 breast = test system: BT-549 breast

Structure (SMILES)	TGI (EKVX NSCLC) [µM]	TGI (HOP-92 NSCLC) [µM]	TGI (OVCAR-3 ovarian) [µM]	TGI (T-47D breast) [µM]	TGI (MOLT-4 leukemia) [µM]	TGI (UACC-257 melanoma) [µM]	TGI (NCI-H226 lung) [µM]	TGI (RPMI-8226 leukemia) [µM]	TGI (SW-620 colon) [µM]	TGI (RXF 393 renal) [µM]	TGI (K-562 leukemia) [µM]	TGI (PC-3 prostate) [µM]	TGI (SN12C renal) [µM]	TGI (HOP-62 NSCLC) [µM]	TGI (UACC-62 melanoma) [µM]	TGI (BT-549 breast) [µM]	GI50 (OVCAR-3 ovarian) [µM]
COc1cc([C@@H]2c3cc(O)c(OC)cc3C=C(C(N)=O)[C@H]2C(N)=O)ccc1O	> 100	> 100	> 100	> 100	> 100	> 100	> 100	> 100	> 100	> 100	> 100	> 100	> 100	> 100			
CCOc1ccc(-n2nnc3c(N)nc(N)nc32)cc1	> 100	> 100	> 100	> 100	> 100	> 100	> 100	> 100	> 100		> 100	> 100	> 100	> 100	> 100	> 100	
CSCCC(NC(=O)Cc1ccc(C(=O)c2ccccc2)cc1)C(=O)O (stereo not given)	> 100	> 100	> 100	> 100	> 100	> 100	> 100		> 100	> 100	> 100	> 100	> 100	> 100	> 100	> 100	
OC1(c2ccccc2)CSC2=Nc3ccccc3C3CCN1N23 (stereo not given)	28.6	69.6	> 100	47.5	80.9	86.8	> 100		47.1	36.9	> 100	29.5	40.1	50	46.3	57.4	
COc1cc(/C=C(/C#N)C(N)=O)ccc1O	> 100	> 100	> 100		> 100	> 100	> 100	> 100	> 100		> 100		> 100	> 100	> 100		
CCOC(=O)c1ccc(C(=O)C(C(C)=O)C(=O)OC(C)(C)C)[nH]1 (stereo not given)	> 100		> 100	> 100	> 100		> 100	> 100	> 100	> 100	> 100	> 100	> 100	> 100	> 100	> 100	
O=C1NC(=S)N(c2ccccc2)C1=O	> 100	> 100		> 100	> 100	> 100	> 100	> 100	> 100	> 100	> 100	> 100	> 100	> 100	> 100		
Cc1n[nH]c(=O)n1/N=C/c1ccc([N+](=O)[O-])o1	34.3		17.8	40.6	> 100	27.7	56	> 58.3	37.8	17.7	> 100	> 100	14.4	> 64.4	33.6	36.6	
COc1cccc(NC(=O)C(C#N)=C(SC)SC)c1	> 100	> 100			> 100	> 100	> 100		> 100	> 100	> 100	> 100	> 100	> 100	> 100	> 100	
O=C(CSC1=NCCN1)Nc1ccccc1	> 100	91	51.4	61.2	> 100	40.2		> 100	> 100	33.3	> 100	52.6	41.1	> 100	52.4	59.5	
Cc1ccc(N=Nc2c(O)c(C(=O)Nc3ccccc3)cc3ccccc23)c([N+](=O)[O-])c1	> 100	> 100	> 100	> 100	> 100	> 100		> 100	> 100	> 100	> 100	> 100	> 100	> 100	> 100	> 100	
CN(CCCNC(=O)c1nn(-c2ccc(Cl)cc2Cl)c2c1Cc1ccccc1-2)CCCNC(=O)c1nn(-c2ccc(Cl)cc2Cl)c2c1Cc1ccccc1-2	3.26	3.06	3.09	3.76	3.98	3.35		3	3.06		2.97	3.11	3.04	3.09	2.92	3.18	
COc1ccc(-n2cnc3c(NC(CCSC)C(=O)O)ncnc32)cc1 (stereo not given)	> 100	> 100	> 100	> 100	> 100	> 100	> 100	> 100	> 100		> 100	> 100	> 100	> 100	> 100	> 100	
CCCc1ccc(NCc2cc(OC)c(OC)c(OC)c2)cc1	> 100	75.8	54.4		66.2	74.7		37		61.7	51.6		53.2	> 100	> 100		19
Cc1ccc(CC(C)N)cc1 (stereo not given)	> 100	> 100	> 100		> 100	> 100	> 100	> 100	> 100	> 100	> 100		> 100	> 100	> 100		
CC(C)(C)OC(=O)NCCC1CN(C(=O)c2ccccc2)c2ccccc21 (stereo not given)	> 100	94.6	65.3	95.5	74.4	75.2		54.4	> 100	99	> 100	> 100		83.2	42.3	66.5	
